This is an account of results in patent US20090233957A1, “(-)-BELOXEPIN AND METHODS FOR ITS SYNTHESIS AND USE” (priority 2008, published 2009).

For data set [1], the target named is T1, cloned human 5HT2B receptor (Homo sapiens, UniProt P41595).
T1 construct: expressed in transfected cells; host or cells: CHO cells
Briefly: 5HT2B receptor binding assay, [125I]DOI. To be noted: CHO membranes. The method, then:
For the 5HT2B receptor binding assay, [^125I](±)[…] (DOI) (0.2 nM) was incubated for 15 min at 37° C. with membranes prepared from Chinese hamster ovary cells heterologously expressing the cloned human 5HT2B receptor according to the method of Choi et al., 1994, FEBS Lett 352:393-399. Various concentrations of test compound were added and bound radioactivity was determined by scintillation counting. Non-specific binding was determined in the presence of 1.0 μM unlabeled DOI. The Ki value for the test compound was determined using standard methods.

Data set [2] has as its system rat 50° C. hot plate model. As to the kind of experiment: rat 50° C. hot plate assay. It is filed as in vivo. The method, then: Protocol. Rats were treated with vehicle, 30 mg/kg IP of (−)-beloxepin, or 30 mg/kg IP of (+)-beloxepin and then were placed on a hot plate (50° C.) 30, 60, or 120 minutes after administration of the vehicle or beloxepin enantiomer. Rats treated with 3 mg/kg SC of morphine and tested 30 min post-treatment were used as a positive control in these experiments.

The target of a further data set is T2, human recombinant CYP2D6 (Homo sapiens, UniProt P10635).
T2 construct: purchased BD Bioscience
Briefly: CYP2D6 inhibition, MAMC substrate. To be noted: microsomes with human recombinant CYP2D6; read-out: CYP2D6 Isoenzyme IC50. Type of data set: in vitro ADME. The method, then:
Protocol. […] The source of the enzyme was microsomes containing human recombinant CYP2D6 obtained from BD Bioscience. Conversion of MAMC to 7-hydroxy-4-(aminomethyl)coumarin was measured using a PerkinElmer Fusion with a 390 nm excitation filter and a 460 nm emission filter.

The subject of a further data set is L5 SNL rats. Briefly: L5 Single Nerve Ligation model of neuropathic pain, tactile allodynia (von Frey). It is filed as in vivo, rat. On the procedure: Protocol. The antiallodynic activity of (−)-beloxepin was tested in vivo using the L5—Single Nerve Ligation model of non-nociceptive neuropathic pain as described in LaBuda & Little, 2005, J. Neurosci. Methods 144:175-181. The test animals were placed in a Plexiglas chamber (10 cm×20 cm×25 cm) and habituated for 15 minutes. The chamber was positioned on top of a mesh screen so that von Frey monofilaments could be presented to the plantar surface of both hindpaws. Measurement of tactile sensitivity for each hind paw were obtained using the up/down method (Dixon, 1980, Annu. Rev. Pharmacol. Toxicol. 20:441-462) with seven Frey monofilaments (0.4, 1, 2, 4, 6, 8 and 15 grams). Each trial started with a von Frey force of 2 grams delivered to the right hind paw for approximately 1-2 seconds and then the left hind paw. If there was no withdrawal response, the next higher force was delivered. If there was a response, the next lower force was delivered. This procedure was performed until no response was made at the highest force (15 grams) or until four stimuli were administered following the initial response. The 50% paw withdrawal threshold for each paw was calculated using the following formula: [Xth]log=[vFr]log+ky, where [vFr] is the force of the last von Frey used, k=0.2249 which is the average interval (in log units) between the von Frey monofilaments, and y is a value that depends upon the pattern of withdrawal responses (Dixon, 1980, supra). […] Testing for tactile sensitivity was performed twice and the mean 50% withdrawal value assigned as the tactile sensitivity for the right and left paws for each animal.
Results. The antiallodynic effects produced by (−)-beloxepin (30 mg/kg IP) and (+)-beloxepin (30 mg/kg IP) in L5 SNL rats 8 days post surgery are illustrated in FIG. 1. In this experiment, at 8 days post surgery, rats were treated with vehicle or beloxepin enantiomers (30 mg/kg IP) and tested for tactile allodynia at 30 min post treatment. […] No side effects were observed following treatment with either enantiomer.
The antiallodynic effects produced by (−)-beloxepin (30 mg/kg IP) in L5 SNL rats 14 days post surgery are illustrated in FIG. 2. In this experiment, at 14 days post surgery, rats were treated with vehicle or (−)-beloxepin and tested for tactile allodynia at 30, 60, 120 and 240 min post treatment. Vehicle treated rats were tested at 30 min post treatment.
Protocol. A time course experiment was performed with (−)-beloxepin (60 mg/kg PO) in L5 SNL rats at 7 days post-surgery. Rats were tested at 30, 60, 120, and 240 minutes post-drug.
Protocol. A time course experiment was also performed with (+)-beloxepin (60 mg/kg PO) in L5 SNL rats at 14 days post-surgery. Rats were tested at 30, 60, 120, and 240 minutes post-drug.

T2 sequence (P10635 whole entry): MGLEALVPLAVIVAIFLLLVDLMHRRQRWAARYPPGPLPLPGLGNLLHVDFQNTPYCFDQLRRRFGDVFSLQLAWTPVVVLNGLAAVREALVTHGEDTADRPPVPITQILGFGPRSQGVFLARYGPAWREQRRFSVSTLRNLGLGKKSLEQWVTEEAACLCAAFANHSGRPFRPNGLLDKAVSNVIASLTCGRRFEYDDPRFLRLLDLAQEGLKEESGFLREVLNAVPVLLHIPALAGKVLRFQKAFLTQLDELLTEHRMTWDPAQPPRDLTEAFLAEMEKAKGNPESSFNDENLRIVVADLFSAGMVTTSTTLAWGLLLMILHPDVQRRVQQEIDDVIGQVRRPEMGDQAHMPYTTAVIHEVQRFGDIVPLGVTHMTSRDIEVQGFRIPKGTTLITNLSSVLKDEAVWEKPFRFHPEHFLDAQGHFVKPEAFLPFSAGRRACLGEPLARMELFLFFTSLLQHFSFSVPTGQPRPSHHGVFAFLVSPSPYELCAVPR
T1 sequence (P41595 whole entry): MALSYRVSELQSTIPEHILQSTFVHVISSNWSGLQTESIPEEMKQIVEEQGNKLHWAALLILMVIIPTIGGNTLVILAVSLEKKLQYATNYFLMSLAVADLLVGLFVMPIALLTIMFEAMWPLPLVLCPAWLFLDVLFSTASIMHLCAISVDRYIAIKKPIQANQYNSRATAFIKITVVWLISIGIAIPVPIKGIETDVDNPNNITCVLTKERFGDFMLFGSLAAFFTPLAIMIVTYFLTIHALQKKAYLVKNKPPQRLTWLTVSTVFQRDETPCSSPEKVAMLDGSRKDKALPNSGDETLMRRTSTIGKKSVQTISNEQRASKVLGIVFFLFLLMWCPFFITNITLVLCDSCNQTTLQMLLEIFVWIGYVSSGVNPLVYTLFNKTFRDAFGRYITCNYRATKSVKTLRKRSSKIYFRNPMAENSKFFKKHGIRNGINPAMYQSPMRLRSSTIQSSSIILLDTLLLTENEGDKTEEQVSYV

In data set [1], `Cc1cccc2c1Oc1ccccc1C1(O)CCN(C)CC21` (single isomer, unassigned; (+)) [(+)-beloxepin] showed a Ki of 170 nM. The “antinociceptive activity” value in data set [2] (30 mg/kg IP, 30, 60, 120 min) was “no antinociception was observed”. In data set [2] (30 mg/kg IP, 30, 60 or 120 min), the “% MPE values (range)” value was 10-17%. The IC50 on human recombinant CYP2D6 is 236 nM. Besides, the “antiallodynic effect” value is recorded as “not statistically significant” in the data set on L5 SNL rats (30 mg/kg IP, 8 days post surgery, 30 min post treatment) and “did not produce significant antiallodynic effects at any time point” in the data set on L5 SNL rats (60 mg/kg PO, 14 days post-surgery, tested 30, 60, 120, 240 min).
